Experimental data reported in the supplement of paper PMC13380429.
Counter-ions that a name gives are not always drawn.

Assays:
Conditions in all cases: 72 h
[1] = test system: Calu-3; experiment: cell viability relative to DMSO; higher = less toxic
[2] = test system: U2OS; experiment: as above
[3] = test system: Vero E6; experiment: as above
[4] = test system: HepG2; experiment: as above
[5] = test system: Caco-2; experiment: as above
[6] = test system: Calu-3; experiment: relative viability EC50 (midpoint between 100% and the lowest measured viability); higher = less toxic
[7] = test system: U2OS; experiment: as above
[8] = test system: Vero E6; experiment: as above
[9] = test system: HepG2; experiment: as above
[10] = test system: Caco-2; experiment: as above
[11] = test system: Calu-3; experiment: drug sensitivity score (DSS) for viability; higher = more toxic; extreme values may be limits of the assay
[12] = test system: U2OS; experiment: as above
[13] = test system: Vero E6; experiment: as above
[14] = test system: HepG2; experiment: as above
[15] = test system: Caco-2; experiment: as above

Structure (SMILES) | cell viability ([1]; 1 nM) | cell viability ([1]; 10 nM) | cell viability ([1]; 100 nM) | cell viability ([1]; 1000 nM) | cell viability ([1]; 10000 nM) | cell viability ([2]; 1 nM) | cell viability ([2]; 10 nM) | cell viability ([2]; 100 nM) | cell viability ([2]; 1000 nM) | cell viability ([2]; 10000 nM) | cell viability ([3]; 1 nM) | cell viability ([3]; 10 nM) | cell viability ([3]; 100 nM) | cell viability ([3]; 1000 nM) | cell viability ([3]; 10000 nM) | cell viability ([4]; 1 nM) | cell viability ([4]; 10 nM) | cell viability ([4]; 100 nM) | cell viability ([4]; 1000 nM) | cell viability ([4]; 10000 nM) | cell viability ([5]; 1 nM) | cell viability ([5]; 10 nM) | cell viability ([5]; 100 nM) | cell viability ([5]; 1000 nM) | cell viability ([5]; 10000 nM) | relative viability EC50 [6] | relative viability EC50 [7] | relative viability EC50 [8] | relative viability EC50 [9] | relative viability EC50 [10] | drug sensitivity score [11] | drug sensitivity score [12] | drug sensitivity score [13] | drug sensitivity score [14] | drug sensitivity score [15]
O=C1CC[C@@]2(O)[C@H]3Cc4ccc(O)c5c4[C@@]2(CCN3CC2CC2)[C@H]1O5 [NALTREXONE HYDROCHLORIDE] | 97.3% | 100% | 101% | 99.2% | 99% | 102% | 97.2% | 99.8% | 100% | 101% | 98.1% | 106% | 100% | 103% | 103% | 93.8% | 110% | 102% | 95.1% | 92.1% | 107% | 99% | 95.3% | 99.1% | 90% | > 10 µM | > 10 µM | > 10 µM | > 10 µM | > 10 µM | 0 | 0 | 0 | 0 | 0
N#C/C(=C\c1ccc(O)c(O)c1)C(N)=O [tyrphostin-AG-99] | 102% | 97.2% | 103% | 111% | 112% | 100% | 94.7% | 102% | 105% | 100% | 94% | 98.6% | 98.3% | 93.4% | 107% | 96.3% | 112% | 104% | 110% | 102% | 96.9% | 92.5% | 96.4% | 92.2% | 103% | > 10 µM | > 10 µM | > 10 µM | > 10 µM | > 10 µM | 0 | 0 | 0 | 0 | 0
Cc1cc(C)c2c(N)c(C(=O)NCc3ccc(Cl)cc3)sc2n1 | 101% | 92.2% | 97% | 108% | 96.3% | 98.9% | 103% | 99.7% | 102% | 105% | 101% | 91.8% | 108% | 90.4% | 105% | 102% | 105% | 101% | 91.6% | 98.5% | 95.7% | 91.5% | 107% | 89.5% | 108% | > 10 µM | > 10 µM | > 10 µM | > 10 µM | > 10 µM | 0 | 0 | 0 | 0 | 0
O=C(N[C@H]1CN2CCC1CC2)c1cc2cccc(Cl)c2s1 [EVP-6124] | 87.9% | 92% | 89.1% | 98.5% | 85.1% | 104% | 100% | 95% | 103% | 95.2% | 95.6% | 92.2% | 97.8% | 96% | 92.9% | 90.6% | 95% | 106% | 92.7% | 94.7% | 94.6% | 97.5% | 98.2% | 101% | 92.9% | > 10 µM | > 10 µM | > 10 µM | > 10 µM | > 10 µM | 0 | 0 | 0 | 0 | 0
CC(=O)NCCCOc1ccc(C(=O)N2CCC(N3C(=O)CCc4ccccc43)CC2)cc1 | 81% | 84.4% | 77.8% | 86.9% | 79% | 98% | 100% | 97.3% | 101% | 95.5% | 105% | 92.6% | 95.6% | 104% | 106% | 113% | 92.3% | 116% | 112% | 107% | 104% | 90.1% | 76% | 104% | 88.6% | > 10 µM | > 10 µM | > 10 µM | > 10 µM | > 10 µM | 0 | 0 | 0 | 0 | 0
O=C(Nc1ccc(Cl)cc1)Nc1ccc(Cl)c(Cl)c1 [triclocarban] | 97.2% | 93.3% | 97.3% | 88.8% | 100% | 92.6% | 96.5% | 94.2% | 102% | 97.2% | 101% | 89.4% | 103% | 86.8% | 95.4% | 90% | 88.1% | 99.6% | 98.1% | 97.1% | 82.8% | 59.4% | 94.2% | 104% | 87.9% | > 10 µM | > 10 µM | > 10 µM | > 10 µM | > 10 µM | 0 | 0 | 0 | 0 | 0
CN(C(=O)Cc1ccccc1)[C@H](CN1CCCC1)c1ccccc1 [N-MPPP] | 103% | 96.2% | 91.6% | 106% | 93.4% | 95% | 95.8% | 101% | 102% | 99.1% | 105% | 104% | 102% | 106% | 99.5% | 93.5% | 93.6% | 97.8% | 100% | 98% | 111% | 94.8% | 102% | 97.4% | 95.9% | > 10 µM | > 10 µM | > 10 µM | > 10 µM | > 10 µM | 0 | 0 | 0 | 0 | 0
Nc1nc(OCC2CCCCC2)c2nc[nH]c2n1 [NU-2058] | 92.4% | 106% | 97.2% | 109% | 105% | 96.2% | 103% | 94.6% | 95.6% | 96% | 103% | 97.6% | 98.2% | 102% | 99.7% | 120% | 106% | 98.3% | 104% | 86.8% | 98.4% | 94.6% | 96.2% | 96.2% | 90.3% | > 10 µM | > 10 µM | > 10 µM | > 10 µM | > 10 µM | 0 | 0 | 0 | 0.1 | 0
CCCCN1CCC(CNC(=O)c2c3n(c4ccccc24)CCCO3)CC1 [piboserod] | 108% | 91.9% | 102% | 104% | 83% | 97.7% | 98.7% | 97.7% | 101% | 91.9% | 93.1% | 92.7% | 95% | 91.4% | 95.9% | 94.2% | 106% | 106% | 98.5% | 95.5% | 96% | 99.8% | 96.9% | 99% | 93.4% | > 10 µM | > 10 µM | > 10 µM | > 10 µM | > 10 µM | 0.2 | 0 | 0 | 0 | 0
CC(C)Oc1ccc2c(=O)c3cc(C(=O)O)ccc3oc2c1 [AH6809] | 112% | 111% | 96.9% | 103% | 104% | 104% | 105% | 107% | 102% | 95% | 96.5% | 102% | 95.3% | 89.8% | 98.9% | 96.6% | 97.1% | 91.5% | 93.6% | 94.5% | 97.6% | 100% | 93.2% | 93.6% | 85.2% | > 10 µM | > 10 µM | > 10 µM | > 10 µM | > 10 µM | 0 | 0 | 0 | 0 | 0.3
CCCCNc1nc(N)c2[nH]c(=O)n(Cc3ccc(OCCN(C)C)nc3)c2n1 [DSR-6434] | 90.4% | 104% | 95.2% | 89.6% | 101% | 96.9% | 97.9% | 99% | 101% | 97% | 97.6% | 99.1% | 98.8% | 93.6% | 96.3% | 103% | 102% | 91% | 94.4% | 97.1% | 93.3% | 98.6% | 92.7% | 100% | 95.9% | > 10 µM | > 10 µM | > 10 µM | > 10 µM | > 10 µM | 0 | 0 | 0 | 0 | 0
CC[C@H](Nc1ncnc2[nH]cnc12)c1nc2cccc(F)c2c(=O)n1-c1ccccc1 [idelalisib] | 106% | 104% | 85.8% | 103% | 89.5% | 91.2% | 101% | 94.1% | 95.6% | 93.9% | 99% | 95% | 96% | 87.5% | 89.5% | 104% | 94% | 108% | 97.3% | 88.5% | 95.4% | 98.1% | 96.6% | 101% | 83.7% | > 10 µM | > 10 µM | > 10 µM | > 10 µM | > 10 µM | 0 | 0 | 0.2 | 0.1 | 0.3
CCOC(=O)Nc1ccc2c(c1)N(C(=O)CN(CC)CC)c1ccccc1CC2 [CINPA-1] | 109% | 99.6% | 99.5% | 91.9% | 107% | 105% | 102% | 99.5% | 97.6% | 99.1% | 95.2% | 106% | 96.6% | 100% | 91% | 97.7% | 106% | 99.1% | 96.7% | 93.7% | 103% | 96.1% | 100% | 100% | 92.2% | > 10 µM | > 10 µM | > 10 µM | > 10 µM | > 10 µM | 0 | 0 | 0 | 0 | 0
Oc1ncnc2[nH]ncc12 [allopurinol] | 100% | 98% | 90.4% | 98% | 94.1% | 100% | 103% | 102% | 99.2% | 101% | 107% | 104% | 92% | 101% | 93.9% | 113% | 99.6% | 99.5% | 103% | 91.7% | 91.5% | 97% | 104% | 89.6% | 100% | > 10 µM | > 10 µM | > 10 µM | > 10 µM | > 10 µM | 0 | 0 | 0 | 0 | 0
CNCCn1c(=O)c2cc(OC)c(OC)cc2c2cnc3cc4c(cc3c21)OCO4 | 95.8% | 92.9% | 84.8% | 46.3% | 30.2% | 96.1% | 99.5% | 97.3% | 78.9% | 25.9% | 97.6% | 94.7% | 97.9% | 58.6% | 24.6% | 112% | 92.1% | 56.8% | 18.6% | -0.3% | 95.5% | 95.9% | 89.4% | 58% | 9% | 0.313 µM | 1.44 µM | 0.891 µM | 0.149 µM | 1.04 µM | 11.8 | 7.3 | 9.1 | 20.8 | 10
